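Cultured in 96-well plates, cells were exposed to test compound for 48 hours across five concentrations. GI50 = concentration required for 50% inhibition of growth.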 The source made the active and inactive calls. Rule as the data show it: active = GI50 up to about 1.1 µM and inactive = higher.
Key:
Experiment in all cases: growth of human tumour cells (NCI), 48 h
LOX IMVI = tested on: LOX IMVI
UACC-62 = tested on: UACC-62
HCT-116 = tested on: HCT-116
UACC-257 = tested on: UACC-257
CCRF-CEM = tested on: CCRF-CEM
HL-60 = tested on: HL-60
HCC 2998 = tested on: HCC 2998
CAKI-1 = tested on: CAKI-1
HT-29 = tested on: HT-29
SNB-19 = tested on: SNB-19
OVCAR-8 = tested on: OVCAR-8
HOP-92 = tested on: HOP-92
NCI-H522 = tested on: NCI-H522
A498 = tested on: A498
K562 = tested on: K562
SNB-75 = tested on: SNB-75

Measured: GI50

O=C(CC1C(=O)Nc2ccccc2[S+]1[O-])Nc1cc(Cl)ccc1Cl (stereo not drawn)
inactive: LOX IMVI > 100 µM | UACC-62 > 100 µM | HCT-116 > 100 µM | UACC-257 > 100 µM | CCRF-CEM > 100 µM | HL-60 > 100 µM | HCC 2998 > 100 µM | CAKI-1 > 100 µM | HT-29 > 100 µM | SNB-19 > 100 µM | OVCAR-8 > 100 µM | HOP-92 > 100 µM | NCI-H522 > 100 µM | A498 > 100 µM | K562 > 100 µM | SNB-75 > 100 µM

CCC1(O)CC(c2ccccc2)N(C)C(c2ccccc2)C1 (stereo not drawn)
inactive: LOX IMVI > 100 µM | UACC-62 > 100 µM | HCT-116 86.9 µM | UACC-257 > 100 µM | CCRF-CEM > 100 µM | HL-60 69.2 µM | HCC 2998 > 100 µM | CAKI-1 > 100 µM | HT-29 97.9 µM | SNB-19 > 100 µM | OVCAR-8 > 100 µM | HOP-92 > 100 µM | NCI-H522 94 µM | A498 > 100 µM | K562 94.2 µM | SNB-75 > 100 µM

C[Si](C)(C)/C=C/CN1C(=O)CCC1O (stereo not drawn)
inactive: LOX IMVI > 100 µM | UACC-62 > 100 µM | HCT-116 > 100 µM | UACC-257 > 100 µM | CCRF-CEM > 100 µM | HL-60 > 100 µM | HCC 2998 > 100 µM | CAKI-1 > 100 µM | HT-29 > 100 µM | SNB-19 > 100 µM | OVCAR-8 > 100 µM | HOP-92 > 100 µM | NCI-H522 > 100 µM | A498 > 100 µM | K562 > 100 µM | SNB-75 > 100 µM

CC1C=CC(C(N)C(=O)O)O1 (stereo not drawn)
inactive: LOX IMVI > 100 µM | UACC-62 > 100 µM | HCT-116 > 100 µM | CCRF-CEM > 100 µM | HL-60 > 100 µM | HCC 2998 > 100 µM | CAKI-1 > 100 µM | HT-29 > 100 µM | SNB-19 > 100 µM | OVCAR-8 > 100 µM | HOP-92 > 100 µM | NCI-H522 > 100 µM | A498 > 100 µM | K562 51.3 µM | SNB-75 > 100 µM

O=C(c1ccncc1)n1nc(-c2ccccc2)c(/N=N/c2ccc([N+](=O)[O-])cc2)c1-c1ccccc1
inactive: UACC-62 90.8 µM | HCT-116 73.6 µM | UACC-257 92.3 µM | CCRF-CEM > 10 µM | HL-60 89.3 µM | HCC 2998 71.3 µM | CAKI-1 78.5 µM | HT-29 38.7 µM | SNB-19 31.6 µM | OVCAR-8 91.2 µM | HOP-92 27.5 µM | NCI-H522 66.7 µM | A498 > 100 µM | K562 54.7 µM | SNB-75 12.6 µM

Source: ChEMBL document CHEMBL1201862, “PubChem BioAssay data set” (2004)
